Data published in the supplement of paper PMC11150407.

Assays:
Assay in all cases: area under dose-response viability curve (log dose) (AUC (arbitrary)); higher = less sensitive
Conditions in all cases: 72 h
Daunorubicine = compound: COc1cccc2c1C(=O)c1c(O)c3c(c(O)c1C2=O)C[C@@](O)(C(C)=O)C[C@@H]3O[C@H]1C[C@H](N)[C@H](O)[C@H](C)O1 [Daunorubicine]
Experimental: (§1)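 Primary AML blasts from patients (3q26 EVI1-high and other AML) were treated for 72 h with a dose series of each drug. Viability was measured with an ATP-based CellTiter-Glo assay. The area under the curve of the log-transformed dose-response data was computed in GraphPad Prism; a lower AUC means greater sensitivity.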

Methotrexate = compound: CN(Cc1cnc2nc(N)nc(N)c2n1)c1ccc(C(=O)N[C@@H](CCC(=O)O)C(=O)O)cc1 [Methotrexate]
Experimental: as §1

Entinostat = compound: Nc1ccccc1NC(=O)c1ccc(CNC(=O)OCc2cccnc2)cc1 [Entinostat]
Experimental: as §1

AR-42 = compound: CC(C)[C@H](C(=O)Nc1ccc(C(=O)NO)cc1)c1ccccc1 [AR-42]
Experimental: as §1

Vincristine = compound: CC[C@]1(O)C[C@H]2CN(CCc3c([nH]c4ccccc34)[C@@](C(=O)OC)(c3cc4c(cc3OC)N(C=O)[C@H]3[C@@](O)(C(=O)OC)[C@H](OC(C)=O)[C@]5(CC)C=CCN6CC[C@]43[C@@H]65)C2)C1 [Vincristine]
Experimental: as §1

Belinostat = compound: O=C(/C=C/c1cccc(S(=O)(=O)Nc2ccccc2)c1)NO [Belinostat]
Experimental: as §1

Row | Test System | area under dose-response viability curve (Daunorubicine) | area under dose-response viability curve (Methotrexate) | area under dose-response viability curve (Entinostat) | area under dose-response viability curve (AR-42) | area under dose-response viability curve (Vincristine) | area under dose-response viability curve (Belinostat)
1 | PR#033 (EVI1 status: EVI1Low) | 36.2 | 226 | 183 | 154 | 147 | 178
2 | PR#023 (EVI1 status: EVI1High) | 138 | 240 | 162 | 139 | 140 | 165
3 | PR#019 (EVI1 status: EVI1Low) | 128 | 245 | 232 | 208 | 203 | 225
4 | PR#026 (EVI1 status: EVI1Low) | 85.1 | 241 | 205 | 155 | 90.2 | 189
5 | PR#027 (EVI1 status: EVI1Low) | 63.1 | 262 | 197 | 158 | 186 | 164
